According to patent US5096929A, “2-amino-1,2,3,4-tetrahydronaphthalene derivatives with cardiovascular activity, process for their preparation and pharmaceutical compositions containing them” (Chiesi Farmaceutici S.p.A., priority 1989, dated 1992):
Where a name gives a salt, the structure may show the parent alone. Read-outs that look alike come from different tables or passages of the source.

Assay: Evaluation of acute toxicities, rat
Conditions: in vivo, male/female, read-out: Acute toxicity mean LD50
Excerpt: Evaluation of acute toxicities

Structure (SMILES): COc1ccc2c(c1OC)CCC(N[C@@H](C)[C@H](O)c1ccc(O)cc1)C2 (relative stereo) [CHF 1255, Erythro-5,6-Dimethoxy-2-[2-(4-hydroxyphenyl)-2-hydroxy-1-mehylethylamino]1,2,3,4-tetrahydronaphthalene hydrochloride]
- LD50 (iv, i.v.): 59 mg/kg
- LD50 (po, os): 1270 mg/kg
